According to patent publication US20250339399A1, “SUPRAMOLECULAR SELF-ASSEMBLY SYSTEM” (Beijing Creatron Institute of Pharmaceutical Research Co., …, priority 2022, published 2025):
Read-outs that look alike come from different tables or passages of the source.

Legend:
[1] = human use; bw: body weight; cited from earlier work
[2] = cited from earlier work; for Sol / LogP: natural flavonoids (chalcone, dihydrochalcone class)
[3] = Guest molecule concentration after incubation in initial medium without polymer (Comparative Example 1); format: physicochemical; conditions: 37° C., pH 6.8 phosphate buffer
Procedure, shortened: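 Dissolved guest content measured by HPLC of centrifuged supernatants (37° C., 13000 rpm, 5 min) sampled at 0.5 h, 3 h and 6 h. Incubation was polymer-free at 37° C.±0.5° C. in buffers of pH 2.0-7.4; nominal loading was set by maximum clinical dose.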

[4] = cited from earlier work
[5] = Binary supramolecular self-assembly systems of polymer and target: guest concentration over incubation time (Comparative Example 2); format: physicochemical; conditions: for Concentration of guest molecule in solution / Times that of the initial medium: 6 h
Procedure: Experiments were conducted according to the steps in Comparative Example 1, and quantitative analysis was carried out using the analytical method for each target to investigate the regulation ability […] stacking.

[6] = parent flavonoid of the class, no unit printed in the heading

Isoquercitrin [compound 304]
Acceptable daily intake (ADI) [1]: 3.3 mg/kg bw/day

C[C@@H]1O[C@@H](O[C@H]2[C@H](Oc3cc(O)c(C(=O)CCc4ccc(O)c(O)c4)c(O)c3)O[C@H](CO)[C@@H](O)[C@@H]2O)[C@H](O)[C@H](O)[C@H]1O [Neoeriocitrin dihydrochalcone, 1-[4-[(2S,3R,4S,5S,6R)-4,5-dihydroxy-6-(hydroxymethyl)-3-[(2S,3R,4R,5R,6S)-3,4,5-trihydroxy-6-methoxy-2-yl]oxy-2-yl]oxy-2,6-dihydroxyphenyl]-3-(3,4-dihydroxyphenyl)propan-1-one]
Sol ([2]; Table 1 basic information): 21.89 mg/mL

O=C(CCc1ccc(O)cc1)c1c(O)cc(O[C@@H]2O[C@H](CO)[C@@H](O)[C@H](O)[C@H]2O)cc1O [Trilobatin, trilobatin]
Sol ([2]; Table 1 basic information): 3.89 mg/mL

COc1ccc(CCC(=O)c2c(O)cc(O[C@@H]3O[C@H](CO)[C@@H](O)[C@H](O)[C@H]3O[C@@H]3O[C@@H](C)[C@H](O)[C@@H](O)[C@H]3O)cc2O)cc1O [Neosperidin dihydrochalcone, neohesperidin dihydrochalcone]
Sol ([2]; Table 1 basic information): 104.87 mg/mL

CC1(C)[C@@H](O[C@H]2O[C@H](C(=O)O)[C@@H](O)[C@H](O)[C@H]2O[C@@H]2O[C@H](C(=O)O)[C@@H](O)[C@H](O)[C@H]2O)CC[C@]2(C)[C@H]3C(=O)C=C4[C@@H]5C[C@@](C)(C(=O)O)CC[C@]5(C)CC[C@@]4(C)[C@]3(C)CC[C@@H]12 [Glycyrrhizic acid, glycyrrhizic acid]
Solubility ([2]; pH > 5.0): pH > 5.0: 159 mg/ml

C=C1C[C@@]23CC[C@H]4[C@@](C)(CCC[C@@]4(C)C(=O)O[C@@H]4O[C@H](CO)[C@@H](O)[C@H](O)[C@H]4O)[C@@H]2CC[C@]1(O[C@@H]1O[C@H](CO)[C@@H](O)[C@H](O[C@@H]2O[C@H](CO)[C@@H](O)[C@H](O)[C@H]2O)[C@H]1O[C@@H]1O[C@@H](C)[C@H](O)[C@@H](O)[C@H]1O)C3 [Rebaudioside C, rebaudioside C]
Intrinsic solubility [2]: Intrinsic solubility: 72.63 mg/ml

C=C1C[C@@]23CC[C@H]4[C@@](C)(CCC[C@@]4(C)C(=O)O[C@@H]4O[C@H](CO)[C@@H](O)[C@H](O)[C@H]4O)[C@@H]2CC[C@]1(O[C@@H]1O[C@H](CO)[C@@H](O)[C@H](O[C@@H]2O[C@H](CO)[C@@H](O)[C@H](O)[C@H]2O)[C@H]1O[C@@H]1O[C@H](CO)[C@@H](O)[C@H](O)[C@H]1O)C3 [Rebaudioside A]
Intrinsic solubility [2]: Intrinsic solubility: 288.8 mg/ml

O=C(CCc1ccc(O)c(O)c1)c1c(O)cc(O)cc1O [3-hydroxyphloretin, 3-(3,4-dihydroxyphenyl)-1-(2,4,6-trihydroxyphenyl)propan-1-one]
Sol ([2]; Table 1 basic information): 8.59 mg/mL

O=c1cc(-c2ccc(O)c(O)c2)oc2cc(O)cc(O)c12 [Luteolin]
solubility value given in Table 1 (basic information of natural flavonoids) [2, 6]: Luteolin (CAS: 491-70-3) derivatives-0.40

COc1cc(-c2oc3cc(O)cc(O)c3c(=O)c2O)ccc1O [Isorhamnetin]
Intrinsic solubility (value in the class heading) ([2]; parent flavonoid of the class, Table 1 basic information): Isorhamnetin derivatives (0.45 mg/ml)

O=C(CCc1ccc(O)c(O)c1)c1c(O)cc(O)cc1O[C@@H]1O[C@H](CO)[C@@H](O)[C@H](O)[C@H]1O [3-hydroxyphloretin 2′-glucoside]
LogP ([2]; Table 1 basic information): 0.67 | Sol ([2]; Table 1 basic information): 11.65 mg/mL

C[C@@H]1O[C@@H](O[C@H]2[C@H](Oc3cc(O)c(C(=O)CCc4ccc(O)cc4)c(O)c3)O[C@H](CO)[C@@H](O)[C@@H]2O)[C@H](O)[C@H](O)[C@H]1O [Naringin dihydrochalcone, naringin dihydrochalcone]
LogP ([2]; Table 1 basic information): 0.90 | Sol ([2]; Table 1 basic information): 6.78 mg/mL

C=C1C[C@@]23CC[C@H]4[C@@](C)(CCC[C@@]4(C)C(=O)O)[C@@H]2CC[C@]1(O[C@@H]1O[C@H](CO)[C@@H](O)[C@H](O[C@@H]2O[C@H](CO)[C@@H](O)[C@H](O)[C@H]2O)[C@H]1O[C@@H]1O[C@H](CO)[C@@H](O)[C@H](O)[C@H]1O)C3 [Rebaudioside B, rebaudioside B]
Intrinsic solubility [2]: Intrinsic solubility: 7.98 mg/ml

C=C1C[C@@]23CC[C@H]4[C@@](C)(CCC[C@@]4(C)C(=O)O[C@@H]4O[C@H](CO)[C@@H](O)[C@H](O)[C@H]4O)[C@@H]2CC[C@]1(O[C@@H]1O[C@H](CO)[C@@H](O)[C@H](O)[C@H]1O[C@@H]1O[C@H](CO)[C@@H](O)[C@H](O)[C@H]1O)C3 [Stevioside]
Intrinsic solubility [2]: Intrinsic solubility: 6.7 mg/ml

O=C(CCc1ccc(O)cc1)c1c(O)cc(O)cc1O[C@@H]1O[C@H](CO)[C@@H](O)[C@H](O)[C@H]1O [Phloridzin, 1-[2,4-dihydroxy-6-[(2S,3R,4S,5S,6R)-3,4,5-trihydroxy-6-(hydroxymethyl)oxo-2-yl]oxophenyl]-3-(4-hydroxyphenyl)propan-1-one]
Sol ([2]; Table 1 basic information): 3.89 mg/mL

CC(=O)O[C@H]1[C@H](Oc2cc(O)c(C(=O)CCc3ccc(O)cc3)c(O)c2)O[C@H](CO)[C@@H](O)[C@@H]1O [Trilobatin 2″-acetate, [(2S,3R,4S,5S,6R)-(R)-2-[3,5-dihydroxy-4-[3-(4-hydroxyphenyl)propionyl]phenoxy]-4,5-dihydroxy-6-(hydroxymethyl)oxy-3-yl]acetate]
LogP ([2]; Table 1 basic information): 2.07 | Sol ([2]; Table 1 basic information): 2.08 mg/mL

C=C1C[C@@]23CC[C@H]4[C@@](C)(CCC[C@@]4(C)C(=O)O[C@@H]4O[C@H](CO)[C@@H](O)[C@H](O)[C@H]4O)[C@@H]2CC[C@]1(O[C@@H]1O[C@H](CO)[C@@H](O)[C@H](O)[C@H]1O)C3 [Rubusoside, rubusoside]
Intrinsic solubility [2]: Intrinsic solubility: 0.39 mg/ml

O=C1C[C@@H](c2ccc(O)cc2)Oc2cc(O)cc(O)c21 [Naringenin]
Concentration of guest molecule measured after different incubated time ([3]; 0.5 h): 169.9 µg/mL | Concentration of guest molecule measured after different incubated time ([3]; 3 h): 126.7 µg/mL | Concentration of guest molecule measured after different incubated time ([3]; 6 h): 129.1 µg/mL | LogP [4]: LogP 2.71 | Concentration of the target in the solution measured after different incubation time ([5]; binary system with 0.5% polymer 101, incubation 0.5 h): 412.1 µg/mL | Concentration of the target in the solution measured after different incubation time ([5]; binary system with 0.5% polymer 101, incubation 3 h): 214.9 µg/mL | Concentration of the target in the solution measured after different incubation time ([5]; binary system with 0.5% polymer 101, incubation 6 h): 126.4 µg/mL | Concentration of the target in the solution measured after different incubation time ([5]; binary system with 0.5% polymer 102, incubation 0.5 h): 456.4 µg/mL | Concentration of the target in the solution measured after different incubation time ([5]; binary system with 0.5% polymer 102, incubation 3 h): 389.1 µg/mL | Concentration of the target in the solution measured after different incubation time ([5]; binary system with 0.5% polymer 102, incubation 6 h): 383.3 µg/mL | Concentration of the target in the solution measured after different incubation time ([5]; binary system with 0.5% polymer 103, incubation 0.5 h): 230.7 µg/mL | Concentration of the target in the solution measured after different incubation time ([5]; binary system with 0.5% polymer 103, incubation 3 h): 231.0 µg/mL | Concentration of the target in the solution measured after different incubation time ([5]; binary system with 0.5% polymer 103, incubation 6 h): 233.5 µg/mL | Concentration of the target in the solution measured after different incubation time ([5]; binary system with 0.5% polymer 106, incubation 0.5 h): 469.5 µg/mL | Concentration of the target in the solution measured after different incubation time ([5]; binary system with 0.5% polymer 106, incubation 3 h): 462.5 µg/mL | Concentration of the target in the solution measured after different incubation time ([5]; binary system with 0.5% polymer 106, incubation 6 h): 478.8 µg/mL | Concentration of the target in the solution measured after different incubation time ([5]; binary system with 0.5% polymer 107, incubation 0.5 h): 127.5 µg/mL | Concentration of the target in the solution measured after different incubation time ([5]; binary system with 0.5% polymer 107, incubation 3 h): 130.9 µg/mL | Concentration of the target in the solution measured after different incubation time ([5]; binary system with 0.5% polymer 107, incubation 6 h): 139.1 µg/mL | Concentration of the target in the solution measured after different incubation time ([5]; binary system with 0.5% polymer 110, incubation 0.5 h): 112.7 µg/mL | Concentration of the target in the solution measured after different incubation time ([5]; binary system with 0.5% polymer 110, incubation 3 h): 79.0 µg/mL | Concentration of the target in the solution measured after different incubation time ([5]; binary system with 0.5% polymer 110, incubation 6 h): 77.6 µg/mL | Concentration of guest molecule in solution ([5]; binary: 0.5% 102H): 383.3 µg/mL | Times that of the initial medium ([5]; binary: 0.5% 102H): 3.0 times | Concentration of guest molecule in solution ([5]; binary: 0.5% 103E5): 233.5 µg/mL | Times that of the initial medium ([5]; binary: 0.5% 103E5): 1.8 times | solubility value given in Table 1 (basic information of natural flavonoids) ([2]; parent flavonoid of the class, value follows the class name): Naringenin (CAS 480-41) derivatives, EUF-0.58 mg/ml

O=C(CCc1ccc(O)c(O)c1)c1c(O)cc(O)c([C@@H]2O[C@H](CO)[C@@H](O)[C@H](O)[C@H]2O)c1O [Aspalathin, 3-(3,4-dihydroxyphenyl)-1-{2,4,6-trihydroxy-3-[3,4,5-trihydroxy-6-(hydroxymethyl)oxo-2-yl]phenyl]propan-1-one]
LogP ([2]; Table 1 basic information): 0.83 | Sol ([2]; Table 1 basic information): 36.12 mg/mL

O=C(CCc1ccc(O)cc1)c1c(O)cc(O)cc1O [Phloretin, 3-(4-hydroxyphenyl)-1-(2,4,6-trihydroxyphenyl)propan-1-one]
Sol ([2]; Table 1 basic information): 3.07 mg/mL

O=c1c(O)c(-c2ccc(O)cc2)oc2cc(O)cc(O)c12 [Kaempferol, kaempferol]
solubility value given in Table 1 (basic information of natural flavonoids) [2, 6]: Kaempferol (520-18-3) derivatives-0.40

O=C(CCc1ccc(O)c(O)c1)c1c(O)cc(O[C@@H]2O[C@H](CO)[C@@H](O)[C@H](O)[C@H]2O)cc1O [Sieboldin, 1-(2,6-dihydroxy-4-{[3,4,5-trihydroxy-6-(hydroxymethyl)oxo-2-yl]oxy}phenyl)-3-(3,4-dihydroxyphenyl)propan-1-one]
LogP ([2]; Table 1 basic information): 1.32 | Sol ([2]; Table 1 basic information): 11.65 mg/mL

O=c1c(O)c(-c2ccc(O)c(O)c2)oc2cc(O)cc(O)c12 [Quercetin]
Intrinsic solubility ([2]; parent flavonoid of the class, Table 1 basic information, unit not given): Quercetin (CAS 117-39-5) derivatives EUF (Intrinsic solubility: 1.11)
